# System: CXCR4
# Test: CXCR4 PET/CT with tracer 68Ga-Pentixafor in patients with idiopathic pulmonary fibrosis, prior to and under therapy
# Type: in vivo, human
# Conditions: for CXCR4 signal (PET/CT): patients with idiopathic pulmonary fibrosis, after onset of therapy vs prior to therapy, 68Ga-Pentixafor tracer
# Method: Patients were diagnosed with clinical idiopathic pulmonary fibrosis according to diagnostic criteria of the American Thoracic Society/European Respiratory Society.
# Pentixafor synthesis. Material for synthesis of ^68Ga-pentixafor (CPCR4.2) was provided by Scintomics (Fürstenfeldbruck, Germany) Synthesis was performed as previously described (18, 19), using a ^68Ge/^68Ga-generator (Eckert&Ziegler, Braunschweig, Germany) connected to a Scintomics GRP synthesis module.
# Clinical Imaging. All studies were obtained on a dedicated PET/CT system (Biograph mCT 128 Flow; Siemens, Knoxville, USA), equipped with an extended field-of-view LSO PET component, a 128-slice spiral CT component, and a magnetically driven table optimized for continuous scanning The patients received an intravenous injection of 110 (IQR, 80-120) MBq of ^68Ga-pentixafor. Imaging started with a low-dose non-enhanced helical CT (120 kV, mA modulated, pitch 1.2, reconstructed axial slice thickness 5.0 mm) performed for attenuation correction of PET acquisitions. PET images of the whole body were then acquired using continuous bed motion (CBM) at a speed of 2.0 mm/s for head and neck and 0.5 mm/s for chest and abdomen at 60 min post injection. All studies were reconstructed using time-of-flight and point-spread function information combined with an iterative algorithm (Ultra HD®, Siemens Healthcare; 2 iterations, 21 subsets, matrix 200; zoom 1.0; Gaussian filter of 5.0). In addition, a non-contrast breath-hold high-resolution CT (HRCT) (120 kV, mA modulated) of the chest was used to obtain contiguous 1.0-mm cross-sectional slices throughout the thorax.
# PET/CT image analysis. Transaxial PET, CT and fused PET/CT 68Ga-pentixafor PET/CT images were analyzed on a dedicated workstation equipped with a commercial software package (syngo.via; Siemens Healthcare).
# PET images were visually evaluated for the presence of elevated radiotracer uptake in lung parenchyma in areas of usual interstitial pneumonia (UIP) pattern on CT. Then, ^68Ga-Pentixafor uptake was quantified using a 3D Volume-of-Interest (VOI) technique with isocontour thresholding, yielding mean and peak standardized uptake values (SUVmean and SUVpeak). Separate measurements were performed in three subpleural regions in each lung lobe, and values for each region were then averaged for the subsequent statistical analysis. Tracer uptake in mediastinal and hilar lymph nodes was assessed in three thoracic lymph node stations using 3D VOIs with isocontour thresholding, and also averaged for the subsequent statistical analysis. In addition, tracer uptake (SUVmean) in spleen and bone marrow was […], recorded to evaluate systemic interactions.
# Patients suffering from idiopathic pulmonary fibrosis were investigated for CXCR4 abundance by PET/CT using a CXCR4 tracer ^68Ga-Pentixafor as described.
# The mean signal intensities (SUVmean) were determined in different regions, i.e. upper-, middle and lower fields. The volume of CXCR4-positive areas were determined and put into relation to the total volume of the respective areas. The extent of the fibrotic areas were judged in PET/CT and the SUVmean was determined for mediastinal lymph nodes, spleen and bone marrow.
Structure (SMILES),"CXCR4 signal, single further patient (one of 5 analyzed patients under treatment)","CXCR4 signal intensity, single patient with familial idiopathic pulmonary fibrosis (one of 5 analyzed patients, unclear whether drug was taken on the day of investigation)",CXCR4 signal (PET/CT),CXCR4 signal (PET/CT) (listed as Nitedanib),"patients showing a strong increase in CXCR4 signal intensity in the fibrotic areas in the lung (under treatment, these patients received 150 mg in the morning of the PET/CT day)",signal intensities for CXCR4 (cohort of 12 patients with idiopathic pulmonary fibrosis under treatment vs baseline),strong increase of CXCR4 signal in pulmonary fibrotic areas (patients with idiopathic pulmonary fibrosis under treatment)
COC(=O)c1ccc2c(c1)NC(=O)/C2=C(\Nc1ccc(N(C)C(=O)CN2CCN(C)CC2)cc1)c1ccccc1 [Nintedanib],constant,decrease,increase,significant increase,3 out of 5,–,–
Cc1ccc(=O)n(-c2ccccc2)c1 [Pirfenidone],–,–,–,–,–,remained constant or even decreased,not observed

# Reference: US20190365744A1, “IMPROVED MULTI TYROSINE KINASE INHIBITOR THERAPY” (FRAUNHOFER-GESELLSCHAFT ZUR FORDERUNG DER ANGEWANDTEN …, priority 2017, published 2019)
